Experiment: Solubility measurement of acid chlorides containing one carboxylic acid moiety in hydrocarbon solvents (saturated solutions, proton NMR)
Format: physicochemical
Details: saturated solution, 20°C and 101 kPa
Procedure: Solubility measurement of acid chlorides containing one carboxylic acid moiety in hydrocarbon solvents with and without solubility enhancing additives: • Saturated solutions of sample acid chlorides containing carboxylic acid moieties were prepared in hydrocarbon solvents with and without the presence of trialkylphosphate additives by adding more sample than will dissolve in the solvent and decanting the saturated solvent from the undissolved precipitate. The saturated solutions were evaluated by proton NMR. Deuterated Isopar L is not commercially available, thus all spectra were acquired in the unlocked condition using regular Isopar L. Because of the very high proton concentration in running a non-deuterated solvent, 60° pulse and minimum receiver gain were used to avoid receiver overflow. A relaxation delay of 8 seconds was used for complete signal recovery between scans. The spectral width was set to 20 ppm and the center of the spectrum was set to 5 ppm. Depending on the concentrations of the species of interest, 64-256 scans were used for signal averaging.
The area of the Isopar L peaks between 0.75 and 2.0 ppm were measure and divided by 26 (which represents the average H's present in Isopar L, assuming a molecular formula of C12H26) and multiplied by 170.33, the formula weight of C12H26. The peak area of the aromatic acid chlorides containing carboxylates are between 8.9 - 9.2 ppm and are well resolved from the Isopar solvent. The integration of one of the assigned peaks (for example, the triplet of mono-hydrolyzed TMC at 9.0 ppm represents a single proton) was used to determine the relative weight of the sample in the Isopar L solvent. The integration is divided by the number of protons it represents and multiplied by the formula weight of the compound it represents (for example, the triplet of mono-hydrolyzed TMC at 9.0 ppm would be divided by 1 and multiplied by 247.03 g/mol). The wt% of mono-hydrolyzed TMC in the saturated solution is determined by dividing the value obtained for mono-hydrolyzed TMC by the value obtained for Isopar L.
In the presence of tributylphosphate (TBP), the Isopar L value must be corrected since a few protons of TBP cannot be resolved from the Isopar L peaks. This is done by integrating the -OCH2-protons of TBP which are well resolved at ∼4.05 ppm, dividing this value by 6 (for 6 protons). This area value is then multiplied by 21 (represents the three -CH2CH2CH3 that are unresolved from the Isopar L peak) and subtracted from the peak area of Isopar L. Table 2: […]

| SMILES | Solubility (wt%) (Solvent: Isopar L + 0.47 wt% TBP) | Solubility (wt%) (Solvent: Isopar L, no additive) | Solubility (wt%) (Solvent: 80/20 Isopar L / Toluene, no additive) | Solubility (wt%) (Solvent: 80/20 Isopar L/Toluene + 0.25 wt% TBP) | Solubility (wt%) (Solvent: Isopar L + 1 wt% TEHP) | Solubility (wt%) (Solvent: Isopar L + 1 wt% TEP) |
| --- | --- | --- | --- | --- | --- | --- |
| O=C(O)c1cccc(C(=O)Cl)c1 [mhIPC] | 0.29 wt% | <0.02 wt% |  |  |  |  |
| O=C(O)c1cc(C(=O)Cl)cc(C(=O)Cl)c1 [mhTMC, mono-hydrolyzed trimesoyl chloride] |  | 0.02 wt% | 0.05 wt% | 0.29 wt% | 0.11 wt% | 0.2 wt% |

Source: patent EP2627439B1, “METHOD FOR SOLUBILIZING CARBOXYLIC ACID-CONTAINING COMPOUND IN HYDROCARBON SOLVENT” (Dow Global Technologies LLC, priority 2011, dated 2013)
